Laboratory results from PubChem BioAssay AID2658 (Sanford-Burnham Center for Chemical Genomics, 2010).
Activity calls are given as the source filed them. No rule for the calls is given here.

Target: Ubiquitin-conjugating enzyme E2 N (Homo sapiens) (UniProt P61088)
Experiment: Ubc13/Uev1a ubiquitination inhibitors, SAR follow-up, selectivity assay, biochemical, TR-FRET (AID 2658)
Details: Ubc13/Uev1a polyubiquitination, in vitro

Chain of Ubiquitin-conjugating enzyme E2 N (Homo sapiens) (P61088 whole entry, looked up): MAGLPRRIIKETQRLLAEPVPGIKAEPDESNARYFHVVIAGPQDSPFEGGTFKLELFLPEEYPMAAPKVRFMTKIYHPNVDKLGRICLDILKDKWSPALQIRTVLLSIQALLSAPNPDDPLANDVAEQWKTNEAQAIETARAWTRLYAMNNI

SMILES	IC50
COc1ccccc1CNC(=O)CNC(=O)c1cc(-c2ccco2)nc2ccccc12	> 100 µM (inactive)
O=C(NN=Cc1ccc(F)cc1)c1cc(-c2ccco2)nc2ccccc12	> 100 µM (inactive)
Cc1ccc(Nc2cc3ccccc3c(=O)[nH]2)cc1	> 100 µM (inactive)
O=c1[nH]c(Nc2ccccc2)cc2ccccc12	> 100 µM (inactive)
CC(NC(=O)COC(=O)c1cc(-c2ccco2)nc2ccccc12)c1ccc(F)cc1 (stereo unspecified)	72.5 µM
CCCCn1c(NS(=O)(=O)c2ccccc2)c(S(=O)(=O)c2ccc(C)cc2)c2nc3ccccc3nc21	> 100 µM (inactive)
O=C1c2oc3ccccc3c(=O)c2C(c2ccc(O)cc2)N1c1nccs1 (stereo unspecified)	> 100 µM (inactive)
CC(=NOCc1nc2ccccc2c(=O)n1N=Cc1cc([N+](=O)[O-])ccc1O)c1ccccc1	> 100 µM (inactive)
COc1ccc(NC(=O)c2cc(-c3ccco3)nc3ccccc23)cc1S(=O)(=O)N1CCOCC1	53.4 µM
Clc1ccc2c(c1)C1C=CCC1C(c1ccccc1)N2 (stereo unspecified)	> 100 µM (inactive)
COc1ccc(CNC(=O)COC(=O)c2cc(-c3cccs3)nc3ccccc23)cc1	33.1 µM
COc1ccccc1CCNC(=O)COC(=O)c1cc(-c2ccco2)nc2ccccc12	> 100 µM (inactive)
O=[N+]([O-])c1ccc2[nH]c(O)c(N=NC(=S)Nc3cccnc3)c2c1	> 100 µM (inactive)
Nc1ccc2c(c1)C1C=CCC1C(c1ccccc1)N2 (stereo unspecified)	> 100 µM (inactive)
Cc1ccc(O)c(N=Cc2ccc(C)s2)c1	> 100 µM (inactive)
O=C(Nc1ccccc1N1CCOCC1)c1cc(-c2ccco2)nc2ccccc12	> 100 µM (inactive)
COc1ccc(CNC(=O)C(C)OC(=O)c2cc(-c3ccco3)nc3ccccc23)cc1 (stereo unspecified)	83 µM
O=C1c2oc3ccccc3c(=O)c2C(c2ccccc2)N1c1nccs1 (stereo unspecified)	> 100 µM (inactive)
O=C(COC(=O)c1cc(-c2ccco2)nc2ccccc12)NCc1cccc(Cl)c1	> 100 µM (inactive)
CCN(CC)CCNC(=O)c1cc(-c2ccco2)nc2ccccc12	> 100 µM (inactive)
S=c1[nH]nc(-c2cc(-c3ccccc3)n[nH]2)n1N=Cc1cccc(Cl)c1	> 100 µM (inactive)

SMILES	IC50
O=C(COC(=O)c1cc(-c2ccco2)nc2ccccc12)NCc1ccc(F)cc1	72.7 µM
COc1ccc(CNC(=O)CCOC(=O)c2cc(-c3ccco3)nc3ccccc23)cc1	> 100 µM (inactive)
O=S(=O)(Nc1ccccc1F)c1ccc2c(c1)C1C=CCC1C(c1ccc(F)cc1)N2 (stereo unspecified)	> 100 µM (inactive)
COc1ccc(C=NNc2cc(N3CCCC3)nc(N3CCCC3)n2)cc1	53.8 µM
COc1ccc(CNC(=O)COC(=O)c2cc(-c3ccco3)nc3ccccc23)c(OC)c1	> 100 µM (inactive)
COc1ccccc1NC(=O)Cn1c(O)c(N=NC(=O)c2ccccc2O)c2ccccc21	> 100 µM (inactive)
Cc1ccsc1C=Nc1ccccc1O	> 100 µM (inactive)
O=C(/C=C/c1cccs1)Nc1scc(-c2ccccc2)c1C(=O)O	78.4 µM
Cc1ccsc1C=Nc1ccc(F)cc1	> 100 µM (inactive)
COc1ccc(-n2c(NC(=O)c3ccc(Br)o3)c(C#N)c3nc4ccccc4nc32)cc1	> 100 µM (inactive)
S=c1[nH]nc(-c2cc(-c3ccccc3)n[nH]2)n1N=Cc1ccccc1	> 100 µM (inactive)
Cc1ccc(S(=O)(=O)N(C)C)cc1NC(=O)c1cc(-c2ccco2)nc2ccccc12	> 100 µM (inactive)
COc1ccccc1C(=O)NC(=O)COC(=O)c1cc(-c2ccco2)nc2ccccc12	> 100 µM (inactive)
O=C(N=Nc1c(O)n(Cc2ccccc2)c2ccccc12)c1cc2ccccc2cc1O	> 100 µM (inactive)
O=C(COC(=O)c1cc(-c2ccco2)nc2ccccc12)NCc1ccccc1	> 100 µM (inactive)
O=C(NNc1cc(N2CCCC2)nc(N2CCCC2)n1)c1ccc([N+](=O)[O-])cc1	> 100 µM (inactive)
Cc1ccccc1CNC(=O)COC(=O)c1cc(-c2ccco2)nc2ccccc12	81.1 µM
COC(=O)c1cccc(-c2ccc(C(c3c(C)[nH][nH]c3=O)c3c(C)[nH][nH]c3=O)o2)c1	> 100 µM (inactive)
COC(=O)c1c(-c2ccccc2)csc1NC(=O)/C=C/c1cccs1	> 100 µM (inactive)
COc1ccccc1CNC(=O)COC(=O)c1cc(-c2ccco2)nc2ccccc12	60.2 µM
